# Measured values as given in patent publication US20220362279A1, “USE OF OLIGONUCLEOTIDES FOR THE TREATMENT AND PREVENTION OF PAIN” (CONSEJO NACIONAL DE INVESTIGACIONES CIENTÍFICAS Y TÉCNICAS, priority 2018, published 2022).
# “Also recorded” adds a separate entry of the source. Strand notation (5' to 3'): a small letter for the sugar, then the base; units joined by * are phosphorothioate-linked, units joined directly phosphodiester-linked; [ ] holds rarer units or linkages, { } end groups; capitals alone tell only the bases. d = 2'-deoxy (DNA)
# How the values were obtained:
# Type in all cases: in vivo, rat
# [1] = tested on: rats with hind paw inflammation (CFA rats); assay: Cold allodynia (acetone drop) in rats with CFA-induced hind paw inflammation
# Protocol: In fifty-two rats anesthetized with Isoflurane (5% induction, 2.5% maintenance, 0.8 L/min O2 flow rate; Piramal Healthcare, UK), the right hind paw was injected intra-dermally with 100 μl of CFA (1:1, dissolved in normal saline; Sigma-Aldrich, Mo., USA), using a 1 ml syringe with a 25G needle attached. The animals (from now on, called CFA rats) were left to recover from anesthesia in a warm and quiet environment before relocating them in their corresponding cages.
# In one set of experiments, called “preventive treatment”, four rats received a daily dose of 20 mg/kg IMT504 for five consecutive days and four weeks later one dose of 6 mg/kg (group a); a second group of four rats received one dose of 6mg/kg of IMT504 (group b) (FIG. 1A). Three days after the single injection of 6 mg/kg IMT504, all eight rats received intra-plantar CFA, after which they were tested for mechanical and cold allodynia during 21 days. At day 28, group b received an additional administration of IMT504 at a dose of 3 mg/kg and was evaluated until day 35.
# For cold allodynia assessment, the reaction to the application of a drop of acetone onto the plantar surface of the hind paw was used. Both frequency of withdrawal and cold score (pain-like behavior intensity) were measured. […]
# [2] = tested on: rats with post-incisional pain; assay: Mechanical allodynia in rats with post-incisional pain (plantar incision); details: 6 mg/kg s.c. 48 h and 24 h before incision
# Description: In twenty-four rats anesthetized with Isoflurane (5% induction, 2.5% maintenance, 0.8 L/min O2 flow rate; Scott-Cassara, Argentina), the right hind paw plantar skin was cleaned and disinfected. This was followed by a 1-cm longitudinal incision distal to heel and extending towards the toes, as previously described (Xu J, et al., 2011, 24(5): 508-514). The incision involved both plantar skin and fascia. This was followed by identification and longitudinal incision of plantar […] muscle, leaving its insertions intact. After achieving homeostasica, skin was sutured using a 5-0 nylon suture, protected with an antibacterial cream and the animal was returned to its retention cage, under observation, until full recovery from anesthesia.
# Rats were subcutaneously administered 6 mg/kg of IMT504, 48 and 24 h before implementing the post-incisional pain model. This was followed by pain-like behavior testing for up to 21 days after injury.
# For mechanical allodynia assessment, a set of von Frey filaments (Stoelting, Ill., USA) and the modified up-down method of Dixon were used, to establish the 50% withdrawal threshold. A withdrawal threshold of 0.21 oz or less was considered an allodynic response.
# [3] = tested on: rats with postsurgical pain (plantar incision); assay: Opioid sparing: morphine in VEH- or IMT504-pre-treated rats with plantar incision, mechanical withdrawal threshold
# Protocol: In all experiments, the oligodeoxynucleotide (ODN) IMT504, with sequence 5′-[…]-3′ (SEQ ID No 1) was used. The HPLC-grade phosphorothioate ODN (Biosynthesis Inc., Lewisville, Tex., USA) was suspended in sterile saline solution (VEH, 0.9% NaCl; 20 mg/ml; storage concentration) and assayed for LPS contamination. Working concentration doses (6 mg/kg) were obtained by additional dissolving in sterile VEH. The ODN was administered subcutaneously, at a final volume of 200-300 μl, depending on animal weight.
# Experiments addressing the opioid sparing effects of IMT504 included the subcutaneous (s.c.) injection of morphine hydrochloride trihydrate (Neocalmans, 10 mg/ml, Soubeiran Chobet, Buenos Aires, Argentina) at three different concentrations (1, 3 or 10 mg/kg, dissolved in sterile distilled water).
# The rat hind paw plantar incision model of postoperative pain was used as previously described [Brennan, T. J., E. P. Vandermeulen, and G. F. Gebhart, Characterization of a rat model of incisional pain. Pain, 1996. 64(3): p. 493-501. Briefly, rats were anesthetized using isoflurane (5% induction, 2.5% maintenance, 0.8 l/min O2 flow rate; Piramal Healthcare, UK) and the plantar aspect of the right hind paw was disinfected with povidone iodine. A 1.0-cm longitudinal incision was made 0.5 cm from the end of the heel. The underlying flexor muscle was also incised longitudinally, allowing the muscle origin and insertion to remain intact. After hemostasis by gentle pressure, the skin was closed with sutures of 5-0 nylon.
# Rats were divided into injured rats receiving IMT504 (6 mg/kg, dissolved in VEH) or VEH alone, 48h and 24 h prior to surgery. These groups were further subdivided into: 1) Rats followed during 3 days after the injury (n=6 per group), for assessment of pain-like behavior after the co-administration of morphine dissolved in injectable water (vehicle) at different doses, 6 and 24 h after injury; 2) Rats followed during 3 days after the injury (n=6 per group), for assessment of pain-like behavior after the co-administration of injectable water (vehicle) alone, 6 and 24 h after injury; 3) Rats followed during 21 days (n=8), for analysis of the administration of naloxone, 3 days after injury.
# Mechanical withdrawal thresholds were assessed by using von Frey nylon monofilaments of different bending forces (1.4, 2, 6, 8, 10, 15 and 26 g; Stoelting Inc., Wooddale, USA) and the modified up-down method of Dixon, as described by Chaplan and cols. (Chaplan, S. R., et al., Quantitative assessment of tactile allodynia in the rat paw. J Neurosci Methods, 1994. 53(1): p. 55-63) , to establish the 50% withdrawal threshold. Results were obtained using the formula: 50% g threshold=[…], where Xf=value (in log units) of the final von Frey hair used; k=tabular value for the pattern of positive/negative responses; and […] difference (in log units) between stimuli. Mechanical withdrawal thresholds were tested 48 h before surgery (basal responses), and 6 h, 1, 3, 7, 14 and 21 days after injury.
# A dose-response experiment to evaluate the effect of the s.c. administration of morphine at different doses (10, 3 and 1 mg/kg), 6 h or 1 day after injury, in VEH- or IMT504-treated rats (time-points were chosen based on the fact that a certain degree of mechanical withdrawal threshold alterations was still present in IMT504-treated rats was done, which allowed to test if within this therapeutic window, it was possible to fully revert pain-like behavior using smaller morphine doses). […]
# [4] = tested on: rats with postsurgical pain (plantar incision); assay: Naloxone challenge in IMT504-pre-treated rats with plantar incision, mechanical withdrawal threshold
# Protocol: In all experiments, the oligodeoxynucleotide (ODN) IMT504, with sequence 5′-[sequence]-3′ (SEQ ID No 1) was used. The HPLC-grade phosphorothioate ODN (Biosynthesis Inc., Lewisville, Tex., USA) was suspended in sterile saline solution (VEH, 0.9% NaCl; 20 mg/ml; storage concentration) and assayed for LPS contamination. Working concentration doses (6 mg/kg) were obtained by additional dissolving in sterile VEH. The ODN was administered subcutaneously, at a final volume of 200-300 μl, depending on animal weight.
# A group of rats also received an intraperitoneal (i.p.) injection of naloxone hydrochloride (Narxona 0.4 mg/ml; Scott-Cassara, Bs. As., Argentina), at a dose of 2 mg/kg, in order to test if the effect of IMT504 could be blocked by the pan-opioid receptor antagonist.
# The rat hind paw plantar incision model of postoperative pain was used as previously described [Brennan, T. J., E. P. Vandermeulen, and G. F. Gebhart, Characterization of a rat model of incisional pain. […] Briefly, rats were anesthetized using isoflurane (5% induction, 2.5% maintenance, 0.8 l/min O2 flow rate; Piramal Healthcare, UK) and the plantar aspect of the right hind paw was disinfected with povidone iodine. A 1.0-cm longitudinal incision was made 0.5 cm from the end of the heel. The underlying flexor muscle was also incised longitudinally, allowing the muscle origin and insertion to remain intact. After hemostasis by gentle pressure, the skin was closed with sutures of 5-0 nylon.
# Rats were divided into injured rats receiving IMT504 (6 mg/kg, dissolved in VEH) or VEH alone, 48h and 24 h prior to surgery. […]
# Mechanical withdrawal thresholds were assessed by using von Frey nylon monofilaments of different bending forces (1.4, 2, 6, 8, 10, 15 and 26 g; Stoelting Inc., Wooddale, USA) and the modified up-down method of Dixon, as described by Chaplan and cols. (Chaplan, S. R., et al., Quantitative assessment of tactile allodynia in the rat paw. J Neurosci Methods, 1994. 53(1): p. 55-63) , to establish the 50% withdrawal threshold. […]
# [5] = 6 mg/kg 3 days before CFA (FIG. 7)
# [6] = 6 mg/kg 3 days before CFA, booster 3 mg/kg day 28
# [7] = 20 mg/kg daily x5 plus single 6 mg/kg three days before CFA
substance,measurement,setting,value
IMT504: synthetic phosphorothioate oligodeoxynucleotide with sequence 5′-TCATCATTTTGTCATTTTGTCATT-3′ (SEQ ID No 1) (DNA dT*dC*dA*dT*dC*dA*dT*dT*dT*dT*dG*dT*dC*dA*dT*dT*dT*dT*dG*dT*dC*dA*dT*dT),period after induction of inflammation during which IMT504 prevents cold allodynia,[1]; [5],1 days
same,time of reaching cold allodynic levels comparable to vehicle-treated rats,[1]; [5],7 days after injury
same,effect of an additional dose of 3 mg/kg IMT504 28 days after injury on cold allodynia,[1]; [6],full anti-allodynic effect; also recorded: complete reduction in mechanical and cold allodynia
same,time at which the anti-allodynic effect (cold) of the reinforcement dose is lost,[1]; [6],35 days after injury
same,progression of cold allodynia,[1]; [7],very slow increase in cold withdrawal frequency; also recorded: slow progression towards cold allodynia
same,time of peak of cold allodynia,[1]; [7],21 days after injury
same,frequency of cold allodynia,"[1]; both preventive groups, twenty days after injury",60%
same,time of peak of cold allodynia,"[1]; single dose of 6 mg/kg only, three days before CFA",21 days after injury
same,protection against cold allodynia,"[1]; single dose of 6 mg/kg only, three days before CFA, 6 mg/kg",more moderate anti-allodynic effect; also recorded: milder protection against cold allodynia
same,"cold allodynia vs injured vehicle-treated rats, days 1 and 3 after injury",[1]; single preventive dose of 6 mg/kg (FIG. 11B),significantly lower than that observed in injured vehicle-treated rats
same,"cold allodynia vs vehicle-treated rats, from day 7 on","[1]; single preventive dose of 6 mg/kg (FIG. 11B), differences not statistically significant",always showed lower levels of cold allodynia than vehicle-treated rats
same,day after injury from which basal withdrawal thresholds are shown,[2],3 days
same,mechanical withdrawal thresholds and responses to cold stimuli in contralateral hind paws,[2]; data not shown,remained normal
same,reduction of mechanical withdrawal thresholds at 6 h and 1 day after injury,[2]; vs vehicle,lower reduction of withdrawal thresholds
same,anti-allodynic effect of pre-emptive IMT504 and 3 mg/kg morphine,[3]; 6 h and 1 day after injury challenges,anti-allodynic effects directly comparable to those described for the 10 mg/kg dose in VEH rats
same,time post injection of morphine with withdrawal thresholds remaining significantly higher,"[3]; IMT504-pre-treated rats (6 mg/kg, 48 h and 24 h before surgery), particularly at morphine 3 and 10 mg/kg",≥ 120 min
same,withdrawal threshold once the effect of the opioid had worn out (240 min),"[3]; IMT504 rats receiving 10 mg/kg morphine, 1 day after injury, vs VEH counterparts",retained a significantly higher withdrawal threshold than their VEH counterparts
same,reduction in morphine concentration to achieve the same effect as in VEH-treated injured rats receiving the highest dose,"[3]; area under the curve analyses (FIG. 16, FIG. 17)",3 fold
same,anti-allodynic effect of IMT504 under systemic non-selective opioid receptor antagonist,[4]; naloxone 2 mg/kg i.p. at day 3 after injury (FIG. 18),temporarily blocked
same,mechanical allodynia on day 3 after injury,"[4]; two doses of pre-emptive IMT504 (6 mg/kg, 48 h and 24 h before surgery)",completely abolished
